Assays:
DCIS cells = test: Real Time Cell Analysis, proliferation of DCIS cells; type: cell-based, human; settings: VT107 at varying concentrations, cell index
Protocol: To further examine the effect of TEAD inhibition on the myeloid compartment of the lung, a human breast cancer cell line MCFDCIS (DCIS) that metastasizes to the lungs when a small population of cells (DCISA4) expresses an isoform of the transcription coactivator amplified in breast cancer 1 (Sharif et al., 2021), was used. DCIS:DCISA4 cells were injected into the mammary fat pad of NOD/SCID mice. Mice were treated daily with VT107. Tumors were surgically removed at week 4 and lungs were monitored for metastases for another 4 weeks without receiving additional treatment (FIG. 13, Panel B). Mouse body weights were measured weekly throughout the course of treatment (FIG. 13, Panel C). […] All mice in the vehicle treated group developed lung metastases as previously reported (Sharif et al., 2021). […] RNA was extracted from lung tissues to further examine the host stroma affected by VT107. RNA sequencing reads from the lungs were aligned to the mouse transcriptome to shed light on the host tissue changes in response to treatment in the presence of seeded cancer cells. […]
Cell analysis was done using E-plates from xCELLigence, (Agilent, #5469830001) according to the manufacturer's protocol. […] Cell index was measured by changes in electric impedance at 15 min intervals. […]

Jurkat cells = test: Real Time Cell Analysis, cytotoxicity of Jurkat cells towards 4T1 cells; type: cell-based, human; settings: 1 μM VT107 for 24 hours
Protocol: The hippo pathway has been implicated in T-cell development and function (Du et al., 2014; Ueda et al., 2012). For example, YAP expression is essential for tumor immune suppression by Treg cells that attenuates CD8 T-cell immunity (Geng et al., 2017; Ni et al., 2018; Lebid et al., 2020). […] To investigate whether VT107 directly affected T-cells, T-cells treated with VT107 were co-cultured with 4T1 cells in 2D for 72 hours. […] To further confirm T-cell activation upon TEAD activity reduction, we used Jurkat cells, a CD4 positive human lymphoma cell line (Schneider et al., 1977). […] However, here we show the specific effect of TEAD reduction on granzyme gene expression and degranulation that result in the killing of cancer cells.
Cell analysis was done using E-plates from xCELLigence, (Agilent, #5469830001) according to the manufacturer's protocol. For cell cytotoxicity, cancer cells (10,000-25,000 cells per well) were seeded and allowed to attach for 1-2 hours prior to the addition of immune cells and/or drug treatments. For cell proliferation, cancer cells were seeded at 5,000-10,000 cells per well with incremental doses of drug treatments or DMSO as a vehicle control. Cell index was measured by changes in electric impedance at 15 min intervals. TEAD inhibitors were obtained from Vivace therapeutics. […]

VT107
proliferation of DCIS / breast cancer cells in vitro (DCIS cells): no significant change
proliferation of DCIS / breast cancer cells in vitro (DCIS cells; listed as iTEAD): no effect
Jurkat cytotoxicity towards co-cultured 4T1 cells (Jurkat cells): enhanced cytotoxicity

— US20250352524A1, “PREVENTION OF METASTATIC OUTGROWTH USING TEAD INHIBITORS” (Georgetown University, priority 2024, published 2025)
